According to PubChem BioAssay AID1259407 (Chemical Carcinogenesis Research Information System (CCRIS), 2018):
The source made the active and inactive calls. No rule for the calls is given here.

Tested on: CCRIS mutagenicity, Ames/micronucleus/aberration tests
Test: CCRIS mutagenicity studies
[1] = Test System: AMES SALMONELLA TYPHIMURIUM, Strain/Indicator: TA98, Metabolic Activation: NONE, Method: STANDARD PLATE
[2] = Test System: AMES SALMONELLA TYPHIMURIUM, Strain/Indicator: TA98, Metabolic Activation: RAT, LIVER, S-9, AROCLOR 1254, Method: STANDARD PLATE
[3] = Test System: AMES SALMONELLA TYPHIMURIUM, Strain/Indicator: TA100, Metabolic Activation: NONE, Method: STANDARD PLATE
[4] = Test System: AMES SALMONELLA TYPHIMURIUM, Strain/Indicator: TA100, Metabolic Activation: RAT, LIVER, S-9, AROCLOR 1254, Method: STANDARD PLATE
[5] = Test System: AMES SALMONELLA TYPHIMURIUM, Strain/Indicator: TA1535, Metabolic Activation: NONE, Method: STANDARD PLATE
[6] = Test System: AMES SALMONELLA TYPHIMURIUM, Strain/Indicator: TA1535, Metabolic Activation: RAT, LIVER, S-9, AROCLOR 1254, Method: STANDARD PLATE
[7] = Test System: AMES SALMONELLA TYPHIMURIUM, Strain/Indicator: TA1537, Metabolic Activation: NONE, Method: STANDARD PLATE
[8] = Test System: AMES SALMONELLA TYPHIMURIUM, Strain/Indicator: TA1537, Metabolic Activation: RAT, LIVER, S-9, AROCLOR 1254, Method: STANDARD PLATE
[9] = Test System: AMES SALMONELLA TYPHIMURIUM, Strain/Indicator: TA1538, Metabolic Activation: NONE, Method: STANDARD PLATE
[10] = Test System: AMES SALMONELLA TYPHIMURIUM, Strain/Indicator: TA97, Metabolic Activation: HAMSTER, LIVER, S-9, AROCLOR 1254 (10%), Method: PREINCUBATION
[11] = Test System: AMES SALMONELLA TYPHIMURIUM, Strain/Indicator: TA97, Metabolic Activation: NONE, Method: PREINCUBATION
[12] = Test System: AMES SALMONELLA TYPHIMURIUM, Strain/Indicator: TA97, Metabolic Activation: RAT, LIVER, S-9, AROCLOR 1254 (10%), Method: PREINCUBATION
[13] = Test System: AMES SALMONELLA TYPHIMURIUM, Strain/Indicator: TA98, Metabolic Activation: HAMSTER, LIVER, S-9, AROCLOR 1254 (10%), Method: PREINCUBATION
[14] = Test System: AMES SALMONELLA TYPHIMURIUM, Strain/Indicator: TA98, Metabolic Activation: NONE, Method: PREINCUBATION
[15] = Test System: AMES SALMONELLA TYPHIMURIUM, Strain/Indicator: TA98, Metabolic Activation: RAT, LIVER, S-9, AROCLOR 1254 (10%), Method: PREINCUBATION
[16] = Test System: AMES SALMONELLA TYPHIMURIUM, Strain/Indicator: TA100, Metabolic Activation: HAMSTER, LIVER, S-9, AROCLOR 1254 (10%), Method: PREINCUBATION
[17] = Test System: AMES SALMONELLA TYPHIMURIUM, Strain/Indicator: TA100, Metabolic Activation: NONE, Method: PREINCUBATION
[18] = Test System: AMES SALMONELLA TYPHIMURIUM, Strain/Indicator: TA100, Metabolic Activation: RAT, LIVER, S-9, AROCLOR 1254 (10%), Method: PREINCUBATION
[19] = Test System: AMES SALMONELLA TYPHIMURIUM, Strain/Indicator: TA1535, Metabolic Activation: HAMSTER, LIVER, S-9, AROCLOR 1254 (10%), Method: PREINCUBATION
[20] = Test System: AMES SALMONELLA TYPHIMURIUM, Strain/Indicator: TA1535, Metabolic Activation: NONE, Method: PREINCUBATION
[21] = Test System: AMES SALMONELLA TYPHIMURIUM, Strain/Indicator: TA1535, Metabolic Activation: RAT, LIVER, S-9, AROCLOR 1254 (10%), Method: PREINCUBATION

Compound: [Cl][Sn][Cl]
- mutagenic call (End Point: IN VITRO CHROMOSOMAL ABERRATIONS, Test System: CHO CELLS, Metabolic Activation: RAT, LIVER, S-9, AROCLOR 1254): active; positive; precipitation occurred at all doses
- mutagenic call (End Point: In vivo chromosomal aberrations, Test System: Bone marrow cells (dams), liver cells (fetuses), Species: Mouse, Strain/Sex: Swiss/Female, Route: Oral): active; positive (structural and ploidy changes)
- mutagenic call [1]: inactive; negative
- mutagenic call [2]: inactive; negative
- mutagenic call [3]: inactive; negative
- mutagenic call [4]: inactive; negative
- mutagenic call [5]: inactive; negative
- mutagenic call [6]: inactive; negative
- mutagenic call [7]: inactive; negative
- mutagenic call [8]: inactive; negative
- mutagenic call [9]: inactive; negative
- mutagenic call (Test System: AMES SALMONELLA TYPHIMURIUM, Strain/Indicator: TA1538, Metabolic Activation: RAT, LIVER, S-9, AROCLOR 1254, Method: STANDARD PLATE): inactive; negative
- mutagenic call (Test System: E. COLI, Strain/Indicator: WP2, Metabolic Activation: NONE, Method: STANDARD PLATE): inactive; negative
- mutagenic call (Test System: E. COLI, Strain/Indicator: WP2, Metabolic Activation: RAT, LIVER, S-9, AROCLOR 1254, Method: STANDARD PLATE): inactive; negative
- mutagenic call (Test System: E. COLI, Strain/Indicator: WP2 UVRA, Metabolic Activation: NONE, Method: SPOT TEST): inactive; negative
- mutagenic call (Test System: UDS RAT HEPATOCYTES, Strain/Indicator: THY INCORP, Metabolic Activation: NONE): inactive; negative

Compound: Cc1cnc2c(C)c(C)c3c(nc(N)n3C)c2n1
- mutagenic call [2]: active; positive

Compound: Cc1c([N+](=O)[O-])cc(C)c2c1c1ccccc1n2C
- mutagenic call [1]: active; positive
- mutagenic call (Test System: AMES SALMONELLA TYPHIMURIUM, Strain/Indicator: TA98, Metabolic Activation: RAT LIVER S-9, AROCLOR 1254, Method: STANDARD PLATE): active; positive
- mutagenic call [3]: active; positive
- mutagenic call (Test System: AMES SALMONELLA TYPHIMURIUM, Strain/Indicator: TA100, Metabolic Activation: RAT LIVER S-9, AROCLOR 1254, Method: STANDARD PLATE): active; positive

Compound: CCCCOCCCC
- mutagenic call [10]: inactive; negative
- mutagenic call (Test System: AMES SALMONELLA TYPHIMURIUM, Strain/Indicator: TA97, Metabolic Activation: HAMSTER, LIVER, S-9, AROCLOR 1254 (30%), Method: PREINCUBATION): inactive; negative
- mutagenic call [11]: inactive; negative
- mutagenic call [12]: inactive; negative
- mutagenic call (Test System: AMES SALMONELLA TYPHIMURIUM, Strain/Indicator: TA97, Metabolic Activation: RAT, LIVER, S-9, AROCLOR 1254 (30%), Method: PREINCUBATION): inactive; negative
- mutagenic call [13]: inactive; negative
- mutagenic call (Test System: AMES SALMONELLA TYPHIMURIUM, Strain/Indicator: TA98, Metabolic Activation: HAMSTER, LIVER, S-9, AROCLOR 1254 (30%), Method: PREINCUBATION): inactive; negative
- mutagenic call [14]: inactive; negative
- mutagenic call [15]: inactive; negative
- mutagenic call (Test System: AMES SALMONELLA TYPHIMURIUM, Strain/Indicator: TA98, Metabolic Activation: RAT, LIVER, S-9, AROCLOR 1254 (30%), Method: PREINCUBATION): inactive; negative
- mutagenic call [16]: inactive; negative
- mutagenic call (Test System: AMES SALMONELLA TYPHIMURIUM, Strain/Indicator: TA100, Metabolic Activation: HAMSTER, LIVER, S-9, AROCLOR 1254 (30%), Method: PREINCUBATION): inactive; negative
- mutagenic call [17]: inactive; negative
- mutagenic call [18]: inactive; negative
- mutagenic call (Test System: AMES SALMONELLA TYPHIMURIUM, Strain/Indicator: TA100, Metabolic Activation: RAT, LIVER, S-9, AROCLOR 1254 (30%), Method: PREINCUBATION): inactive; negative
- mutagenic call [19]: inactive; negative
- mutagenic call (Test System: AMES SALMONELLA TYPHIMURIUM, Strain/Indicator: TA1535, Metabolic Activation: HAMSTER, LIVER, S-9, AROCLOR 1254 (30%), Method: PREINCUBATION): inactive; negative
- mutagenic call [20]: inactive; negative
- mutagenic call [21]: inactive; negative
- mutagenic call (Test System: AMES SALMONELLA TYPHIMURIUM, Strain/Indicator: TA1535, Metabolic Activation: RAT, LIVER, S-9, AROCLOR 1254 (30%), Method: PREINCUBATION): inactive; negative

Compound: CC1NC(C(=O)O)Cc2c1[nH]c1ccccc21 (stereo not given)
- mutagenic call (Test System: AMES SALMONELLA TYPHIMURIUM, Strain/Indicator: TA97, Metabolic Activation: NONE, Method: STANDARD PLATE): inactive; negative
- mutagenic call (Test System: AMES SALMONELLA TYPHIMURIUM, Strain/Indicator: TA97, Metabolic Activation: RAT, LIVER, S-9, AROCLOR 1254, Method: STANDARD PLATE): inactive; negative
- mutagenic call [1]: inactive; negative
- mutagenic call [2]: inactive; negative
- mutagenic call [3]: inactive; negative
- mutagenic call [4]: inactive; negative

Compound: c1ccc([C@H]2N[C@@H]2c2ccccc2)cc1
- mutagenic call [1]: inactive; negative
- mutagenic call [3]: active; positive
- mutagenic call [7]: inactive; negative

Compound: CCN(CC)c1cccc(O)c1
- mutagenic call [10]: active; positive
- mutagenic call [11]: inactive; negative
- mutagenic call [12]: active; positive
- mutagenic call [13]: active; positive
- mutagenic call [14]: inactive; negative
- mutagenic call [15]: active; positive
- mutagenic call [16]: active; positive
- mutagenic call [17]: inactive; negative
- mutagenic call [18]: inactive; negative
- mutagenic call [19]: inactive; negative
- mutagenic call [20]: inactive; negative
- mutagenic call [21]: inactive; negative

Compound: C1CSCN1
- mutagenic call [17]: active; positive

Compound: Cc1cn2c(N=O)c(-c3ccc([N+](=O)[O-])cc3)nc2s1
- mutagenic call [1]: active; positive
- mutagenic call [3]: active; positive
- mutagenic call [5]: inactive; negative
- mutagenic call [7]: inactive; negative
- mutagenic call [9]: active; positive

Compound: O=S(=O)(Oc1ccc(Cl)c(Cl)c1)c1cccc2cccnc12
- mutagenic call [1]: inactive; negative
- mutagenic call [2]: active; positive
- mutagenic call [3]: inactive; negative
- mutagenic call [4]: active; positive
- mutagenic call [5]: inactive; negative
- mutagenic call [6]: inactive; negative
- mutagenic call [7]: inactive; negative
- mutagenic call [8]: inactive; negative

Compound: CNC(=O)Oc1ccccc1
- mutagenic call [2]: inactive; negative
- mutagenic call [6]: inactive; negative

Compound: OC1(c2ccc(Cl)cc2)c2ccccc2C2=NCCN21 (stereo not given)
- mutagenic call (Test System: CHINESE HAMSTER V-79, Strain/Indicator: V-79/6-THIOGUANINE, Metabolic Activation: NONE): active; positive
- mutagenic call (Test System: CHINESE HAMSTER V-79, Strain/Indicator: V-79/6-THIOGUANINE, Metabolic Activation: S-9): active; positive
